These results are taken from the supplement of paper PMC10307832.

Holding throughout (assay): relative viability (nuclei count vs DMSO), 5 days (fraction); higher = more cells survive
In one test the test system is NCI-H1648. The method in brief: (§1)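 Lung cancer cell lines were pin-tool dosed in 1536-well plates on the day after seeding, with either a lone drug or a fixed anchor-drug dose plus five library-drug doses (not always all listed) in √10 steps. Nuclei were counted on 4× images after 5 days. Relative viability is the ratio of treated-well to vehicle-well nuclei counts, with each value a median of duplicate plates.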

A further test concerns NCI-H2170. The method in brief: as §1
In a further test the test system is NCI-H2023. The gist of the method:
as §1

A further test concerns NCI-H520. The gist of the method: as §1
The subject of a further test is NCI-H727. The method in brief: as §1
In another test the test system is IA-LM. The gist of the method: as §1
The subject of a further test is NCI-H1703. The gist of the method:
as §1

Regarding `Cc1csc(=NC2CCCCC2)n1/N=C/c1ccc(O)c(O)c1O` [MIM1] + CC(=O)Nc1cccc(-n2c(=O)n(C3CC3)c(=O)c3c(Nc4ccc(I)cc4F)n(C)c(=O)c(C)c32)c1 [Trametinib] (partner 0.02 µM), the relative viability came to 0.419 with NCI-H1648 (first compound 0.2 µM); 0.439 with NCI-H1648 (first compound 0.6325 µM); 0.619 in the test with NCI-H1648 (first compound 2 µM); 0.499 in the test on NCI-H1648 (first compound 6.325 µM); 0.267 in the test with NCI-H1648 (first compound 20 µM); 0.859 in the test with NCI-H2170 (first compound 0.2 µM). The relative viability in the test on NCI-H2170 (first compound 0.6325 µM) was found to be 1.01; in the test with NCI-H2170 (first compound 2 µM) it was 0.914; in the test on NCI-H2170 (first compound 6.325 µM) it was 0.609; in the test on NCI-H2170 (first compound 20 µM), 0.368; in the test on NCI-H2023 (first compound 0.2 µM) it was 0.505; in the test with NCI-H2023 (first compound 0.6325 µM), 0.562. For the same compound, the relative viability was 0.52 with NCI-H2023 (first compound 2 µM); 0.247 with NCI-H2023 (first compound 6.325 µM); 0.0881 with NCI-H2023 (first compound 20 µM); 0.625 in the test on NCI-H520 (first compound 0.2 µM); 0.707 in the test with NCI-H520 (first compound 0.6325 µM); 0.652 in the test on NCI-H520 (first compound 2 µM). Moreover, the relative viability in the test on NCI-H520 (first compound 6.325 µM) turned out to be 0.529; in the test on NCI-H520 (first compound 20 µM), 0.289; in the test with NCI-H727 (first compound 0.2 µM), 0.371; with NCI-H727 (first compound 0.6325 µM), 0.407; with NCI-H727 (first compound 2 µM) it was 0.393; in the test with NCI-H727 (first compound 6.325 µM) it was 0.427. The relative viability in the test with NCI-H727 (first compound 20 µM) worked out at 0.383.

Turning to `CCNC(=O)c1noc(-c2cc(C(C)C)c(O)cc2O)c1-c1ccc(CN2CCOCC2)cc1` [Luminespib] + O=C(CCCCCCC(=O)Nc1ccccc1)NO [Vorinostat] (partner 1 µM), the relative viability worked out at 0.299 with NCI-H1648 (first compound 0.002 µM); 0.502 in the test on NCI-H1648 (first compound 0.006325 µM); 0.344 with NCI-H1648 (first compound 0.02 µM); 0.566 with NCI-H1648 (first compound 0.06325 µM); 0.348 with NCI-H1648 (first compound 0.2 µM); 0.746 with NCI-H2170 (first compound 0.002 µM). The relative viability with NCI-H2170 (first compound 0.006325 µM) was 0.698; in the test with NCI-H2170 (first compound 0.06325 µM), 0.572; in the test with NCI-H2170 (first compound 0.2 µM), 0.135; in the test with NCI-H2023 (first compound 0.002 µM), 0.7; in the test on NCI-H2023 (first compound 0.006325 µM) it was 0.527; in the test with NCI-H2023 (first compound 0.02 µM), 0.236. The relative viability in the test with NCI-H2023 (first compound 0.06325 µM) was 0.0453; in the test on NCI-H2023 (first compound 0.2 µM), 0.0503; with NCI-H520 (first compound 0.002 µM) it was 0.748; with NCI-H520 (first compound 0.006325 µM), 0.747; in the test on NCI-H520 (first compound 0.02 µM) it was 0.624; in the test on NCI-H520 (first compound 0.06325 µM), 0.197. Moreover, the relative viability worked out at 0.166 in the test on NCI-H520 (first compound 0.2 µM); 0.918 with IA-LM (first compound 0.002 µM); 0.934 in the test with IA-LM (first compound 0.006325 µM); 0.64 in the test on IA-LM (first compound 0.02 µM); 0.077 in the test on IA-LM (first compound 0.06325 µM); 0.0416 with IA-LM (first compound 0.2 µM). Also, the relative viability with NCI-H727 (first compound 0.002 µM) came to 1.1; in the test on NCI-H727 (first compound 0.006325 µM), 1.21; in the test on NCI-H727 (first compound 0.02 µM), 0.832; in the test on NCI-H727 (first compound 0.06325 µM) it was 1.04; with NCI-H727 (first compound 0.2 µM), 0.31.

In the case of `CN1CCN(CCOc2cc(OC3CCOCC3)c3c(Nc4c(Cl)ccc5c4OCO5)ncnc3c2)CC1` [Saracatinib] + NC(=O)Nc1cc(-c2cccc(F)c2)sc1C(=O)N[C@H]1CCCNC1 [AZD7762] (partner 0.2 µM), the relative viability with NCI-H1648 (first compound 0.02 µM) came out at 0.79; with NCI-H1648 (first compound 0.2 µM), 0.633; with NCI-H1648 (first compound 0.6325 µM) it was 0.865; in the test on NCI-H1648 (first compound 2 µM), 0.379; in the test with NCI-H2170 (first compound 0.02 µM), 0.867; in the test on NCI-H2170 (first compound 0.2 µM), 0.803. Moreover, the relative viability in the test with NCI-H2170 (first compound 0.6325 µM) is 0.872; in the test with NCI-H2170 (first compound 2 µM) it was 0.506; with NCI-H1703 (first compound 0.02 µM), 0.136; with NCI-H1703 (first compound 0.6325 µM) it was 0.129; in the test on NCI-H1703 (first compound 2 µM), 0.114; in the test on NCI-H727 (first compound 0.02 µM), 0.683. In addition, the relative viability in the test with NCI-H727 (first compound 0.2 µM) came to 0.522; in the test with NCI-H727 (first compound 0.6325 µM) it was 0.616; in the test on NCI-H727 (first compound 2 µM) it was 0.401.

Consider `CN1CCN(CCOc2cc(OC3CCOCC3)c3c(Nc4c(Cl)ccc5c4OCO5)ncnc3c2)CC1` [Saracatinib] + CC(=O)c1c(C)c2cnc(Nc3ccc(N4CCNCC4)cn3)nc2n(C2CCCC2)c1=O [Palbociclib] (partner 0.5 µM), for which the relative viability in the test with NCI-H1648 (first compound 0.02 µM) was 0.252; in the test with NCI-H1648 (first compound 0.2 µM) it was 0.291; with NCI-H1648 (first compound 0.6325 µM) it was 0.304; in the test on NCI-H1648 (first compound 2 µM) it was 0.307; in the test on NCI-H2170 (first compound 0.02 µM) it was 0.39; in the test with NCI-H2170 (first compound 0.2 µM) it was 0.39. The relative viability with NCI-H2170 (first compound 0.6325 µM) came to 0.441; in the test on NCI-H2170 (first compound 2 µM), 0.354; in the test with NCI-H2023 (first compound 0.02 µM) it was 0.379; in the test on NCI-H2023 (first compound 0.2 µM) it was 0.31; in the test with NCI-H2023 (first compound 0.6325 µM) it was 0.282; in the test on NCI-H2023 (first compound 2 µM) it was 0.19. Besides, the relative viability turned out to be 0.249 with NCI-H520 (first compound 0.02 µM); 0.211 in the test on NCI-H520 (first compound 0.2 µM); 0.214 in the test on NCI-H520 (first compound 0.6325 µM); 0.156 in the test with NCI-H520 (first compound 2 µM); 0.604 in the test with NCI-H727 (first compound 0.02 µM); 0.692 with NCI-H727 (first compound 0.2 µM). In addition, the relative viability was determined as 0.674 with NCI-H727 (first compound 0.6325 µM) and 0.551 with NCI-H727 (first compound 2 µM).

As to `CCNC(=O)c1noc(-c2cc(C(C)C)c(O)cc2O)c1-c1ccc(CN2CCOCC2)cc1` [Luminespib] + NC(=O)Nc1cc(-c2cccc(F)c2)sc1C(=O)N[C@H]1CCCNC1 [AZD7762] (partner 0.2 µM), the relative viability in the test on NCI-H1648 (first compound 0.002 µM) turned out to be 0.529; with NCI-H1648 (first compound 0.006325 µM), 0.603; with NCI-H1648 (first compound 0.02 µM), 0.875; with NCI-H1648 (first compound 0.06325 µM), 0.702; in the test with NCI-H1648 (first compound 0.2 µM) it was 0.286; with NCI-H2170 (first compound 0.002 µM), 0.868. Moreover, the relative viability with NCI-H2170 (first compound 0.006325 µM) came to 0.851; in the test with NCI-H2170 (first compound 0.06325 µM) it was 0.118; with NCI-H2170 (first compound 0.2 µM) it was 0.104; in the test with NCI-H1703 (first compound 0.002 µM), 0.146; with NCI-H1703 (first compound 0.006325 µM), 0.114; with NCI-H1703 (first compound 0.02 µM) it was 0.149. Also, the relative viability with NCI-H1703 (first compound 0.06325 µM) was found to be 0.115; in the test on NCI-H1703 (first compound 0.2 µM), 0.114; with NCI-H727 (first compound 0.002 µM), 0.53; in the test on NCI-H727 (first compound 0.006325 µM) it was 0.493; with NCI-H727 (first compound 0.02 µM), 0.57; in the test on NCI-H727 (first compound 0.06325 µM), 0.36. Moreover, the relative viability in the test on NCI-H727 (first compound 0.2 µM) stood at 0.323.
